From ChEMBL document CHEMBL1155172, “Distribution of radioactivity in bone and related structures following administration of [14C]dalbavancin to New Zealand white rabbits” (Antimicrob Agents Chemother, 2007)

Tests used:
[1] = Drug level in New Zealand white rabbit periostium assessed as [14C]dalbavancin level per gram of tissue at 20 mg/kg, iv after 120 hrs by autoradioluminography; assay type: ADME, organism-based, Oryctolagus cuniculus, Periosteum; design: dose 20 mg/kg, route intravenous; conditions: in vivo
[2] = Drug level in New Zealand white rabbit bone marrow assessed as [14C]dalbavancin level per gram of tissue at 20 mg/kg, iv after 24 hrs by autoradioluminography; assay type: ADME, organism-based, Oryctolagus cuniculus; design: dose 20 mg/kg, route intravenous; conditions: in vivo
Blood [3] = experiment: Drug level in New Zealand white rabbit blood assessed as [14C]dalbavancin level per gram of tissue at 20 mg/kg, iv after 12 hrs by autoradioluminography; assay type: ADME, organism-based, Oryctolagus cuniculus; design: dose 20 mg/kg, route intravenous; conditions: in vivo
[4] = Drug level in New Zealand white rabbit ligament assessed as [14C]dalbavancin level per gram of tissue at 20 mg/kg, iv after 168 hrs by autoradioluminography; assay type: ADME, organism-based, Oryctolagus cuniculus; design: dose 20 mg/kg, route intravenous; conditions: in vivo
Oryctolagus cuniculus [5] = experiment: Plasma concentration in New Zealand white rabbit assessed as [14C]dalbavancin level per gram of tissue at 20 mg/kg, iv after 168 hrs by liquid scintillation counting method; assay type: ADME, organism-based; design: dose 20 mg/kg, route intravenous; conditions: in vivo
[6] = Drug level in New Zealand white rabbit skeletal muscle assessed as [14C]dalbavancin level per gram of tissue at 20 mg/kg, iv after 12 hrs by autoradioluminography; assay type: ADME, organism-based, Oryctolagus cuniculus; design: dose 20 mg/kg, route intravenous; conditions: in vivo
[7] = Drug level in New Zealand white rabbit cerebrospinal fluid assessed as [14C]dalbavancin level per gram of tissue at 20 mg/kg, iv after 24 hrs by liquid scintillation counting method; assay type: ADME, organism-based, Oryctolagus cuniculus; design: dose 20 mg/kg, route intravenous; conditions: in vivo
[8] = Drug level in New Zealand white rabbit epiphyseal plate assessed as [14C]dalbavancin level per gram of tissue at 20 mg/kg, iv after 168 hrs by autoradioluminography; assay type: ADME, organism-based, Oryctolagus cuniculus; design: dose 20 mg/kg, route intravenous; conditions: in vivo
[9] = Drug level in New Zealand white rabbit articular cartilage assessed as [14C]dalbavancin level per gram of tissue at 20 mg/kg, iv after 336 hrs by autoradioluminography; assay type: ADME, organism-based, Oryctolagus cuniculus; design: dose 20 mg/kg, route intravenous; conditions: in vivo
[10] = Drug level in New Zealand white rabbit ligament assessed as [14C]dalbavancin level per gram of tissue at 20 mg/kg, iv after 120 hrs by autoradioluminography; assay type: ADME, organism-based, Oryctolagus cuniculus; design: dose 20 mg/kg, route intravenous; conditions: in vivo
[11] = Drug level in New Zealand white rabbit bone marrow assessed as [14C]dalbavancin level per gram of tissue at 20 mg/kg, iv after 72 hrs by autoradioluminography; assay type: ADME, organism-based, Oryctolagus cuniculus; design: dose 20 mg/kg, route intravenous; conditions: in vivo
[12] = Drug level in New Zealand white rabbit meniscus assessed as [14C]dalbavancin level per gram of tissue at 20 mg/kg, iv after 120 hrs by autoradioluminography; assay type: ADME, organism-based, Oryctolagus cuniculus; design: dose 20 mg/kg, route intravenous; conditions: in vivo
[13] = Drug level in New Zealand white rabbit periostium assessed as [14C]dalbavancin level per gram of tissue at 20 mg/kg, iv after 336 hrs by autoradioluminography; assay type: ADME, organism-based, Oryctolagus cuniculus, Periosteum; design: dose 20 mg/kg, route intravenous; conditions: in vivo
[14] = Drug level in New Zealand white rabbit skeletal muscle assessed as [14C]dalbavancin level per gram of tissue at 20 mg/kg, iv after 24 hrs by autoradioluminography; assay type: ADME, organism-based, Oryctolagus cuniculus; design: dose 20 mg/kg, route intravenous; conditions: in vivo
[15] = Drug level in New Zealand white rabbit articular cartilage assessed as [14C]dalbavancin level per gram of tissue at 20 mg/kg, iv after 24 hrs by autoradioluminography; assay type: ADME, organism-based, Oryctolagus cuniculus; design: dose 20 mg/kg, route intravenous; conditions: in vivo
Staphylococcus = experiment: Antibacterial activity against Staphylococcus; assay type: functional
[16] = Drug level in New Zealand white rabbit bone assessed as [14C]dalbavancin level per gram of tissue at 20 mg/kg, iv after 12 hrs by liquid scintillation counting method; assay type: ADME, organism-based, Oryctolagus cuniculus, Bone element; design: dose 20 mg/kg, route intravenous; conditions: in vivo
[17] = Drug level in New Zealand white rabbit periostium assessed as [14C]dalbavancin level per gram of tissue at 20 mg/kg, iv after 24 hrs by autoradioluminography; assay type: ADME, organism-based, Oryctolagus cuniculus, Periosteum; design: dose 20 mg/kg, route intravenous; conditions: in vivo
[18] = Drug level in New Zealand white rabbit nucleus pulposus assessed as [14C]dalbavancin level per gram of tissue at 20 mg/kg, iv after 72 hrs by liquid scintillation counting method; assay type: ADME, organism-based, Oryctolagus cuniculus; design: dose 20 mg/kg, route intravenous; conditions: in vivo
Blood [19] = experiment: Drug level in New Zealand white rabbit blood assessed as [14C]dalbavancin level per gram of tissue at 20 mg/kg, iv after 168 hrs by autoradioluminography; assay type: ADME, organism-based, Oryctolagus cuniculus; design: dose 20 mg/kg, route intravenous; conditions: in vivo
[20] = Drug level in New Zealand white rabbit bone marrow assessed as [14C]dalbavancin level per gram of tissue at 20 mg/kg, iv after 12 hrs by liquid scintillation counting method; assay type: ADME, organism-based, Oryctolagus cuniculus; design: dose 20 mg/kg, route intravenous; conditions: in vivo
[21] = Drug level in New Zealand white rabbit skeletal muscle assessed as [14C]dalbavancin level per gram of tissue at 20 mg/kg, iv after 120 hrs by autoradioluminography; assay type: ADME, organism-based, Oryctolagus cuniculus; design: dose 20 mg/kg, route intravenous; conditions: in vivo
[22] = Drug level in New Zealand white rabbit periostium assessed as [14C]dalbavancin level per gram of tissue at 20 mg/kg, iv after 72 hrs by autoradioluminography; assay type: ADME, organism-based, Oryctolagus cuniculus, Periosteum; design: dose 20 mg/kg, route intravenous; conditions: in vivo
Oryctolagus cuniculus [23] = experiment: Plasma concentration in New Zealand white rabbit assessed as [14C]dalbavancin level per gram of tissue at 20 mg/kg, iv after 12 hrs by liquid scintillation counting method; assay type: ADME, organism-based; design: dose 20 mg/kg, route intravenous; conditions: in vivo
Blood [24] = experiment: Drug level in New Zealand white rabbit blood assessed as [14C]dalbavancin level per gram of tissue at 20 mg/kg, iv after 336 hrs by autoradioluminography; assay type: ADME, organism-based, Oryctolagus cuniculus; design: dose 20 mg/kg, route intravenous; conditions: in vivo
[25] = Drug level in New Zealand white rabbit synovial space assessed as [14C]dalbavancin level per gram of tissue at 20 mg/kg, iv after 12 hrs by autoradioluminography; assay type: ADME, organism-based, Oryctolagus cuniculus; design: dose 20 mg/kg, route intravenous; conditions: in vivo
[26] = Drug level in New Zealand white rabbit epiphyseal plate assessed as [14C]dalbavancin level per gram of tissue at 20 mg/kg, iv after 336 hrs by autoradioluminography; assay type: ADME, organism-based, Oryctolagus cuniculus; design: dose 20 mg/kg, route intravenous; conditions: in vivo
[27] = Drug level in New Zealand white rabbit bone marrow assessed as [14C]dalbavancin level per gram of tissue at 20 mg/kg, iv after 24 hrs by liquid scintillation counting method; assay type: ADME, organism-based, Oryctolagus cuniculus; design: dose 20 mg/kg, route intravenous; conditions: in vivo
[28] = Drug level in New Zealand white rabbit compact bone assessed as [14C]dalbavancin level per gram of tissue at 20 mg/kg, iv after 336 hrs by autoradioluminography; assay type: ADME, organism-based, Oryctolagus cuniculus, Bone element; design: dose 20 mg/kg, route intravenous; conditions: in vivo
[29] = Drug level in New Zealand white rabbit epiphyseal plate assessed as [14C]dalbavancin level per gram of tissue at 20 mg/kg, iv after 72 hrs by autoradioluminography; assay type: ADME, organism-based, Oryctolagus cuniculus; design: dose 20 mg/kg, route intravenous; conditions: in vivo
[30] = Drug level in human urine assessed as hydroxydalbavancin level; assay type: ADME, tissue-based
[31] = Drug level in New Zealand white rabbit skeletal muscle assessed as [14C]dalbavancin level per gram of tissue at 20 mg/kg, iv after 168 hrs by autoradioluminography; assay type: ADME, organism-based, Oryctolagus cuniculus; design: dose 20 mg/kg, route intravenous; conditions: in vivo
[32] = Drug level in New Zealand white rabbit nucleus pulposus assessed as [14C]dalbavancin level per gram of tissue at 20 mg/kg, iv after 168 hrs by liquid scintillation counting method; assay type: ADME, organism-based, Oryctolagus cuniculus; design: dose 20 mg/kg, route intravenous; conditions: in vivo
[33] = Drug level in New Zealand white rabbit articular cartilage assessed as [14C]dalbavancin level per gram of tissue at 20 mg/kg, iv after 72 hrs by autoradioluminography; assay type: ADME, organism-based, Oryctolagus cuniculus; design: dose 20 mg/kg, route intravenous; conditions: in vivo
[34] = Drug level in New Zealand white rabbit skeletal muscle assessed as [14C]dalbavancin level per gram of tissue at 20 mg/kg, iv after 72 hrs by autoradioluminography; assay type: ADME, organism-based, Oryctolagus cuniculus; design: dose 20 mg/kg, route intravenous; conditions: in vivo
[35] = Drug level in New Zealand white rabbit synovial space assessed as [14C]dalbavancin level per gram of tissue at 20 mg/kg, iv after 168 hrs by autoradioluminography; assay type: ADME, organism-based, Oryctolagus cuniculus; design: dose 20 mg/kg, route intravenous; conditions: in vivo
[36] = Drug level in New Zealand white rabbit synovial space assessed as [14C]dalbavancin level per gram of tissue at 20 mg/kg, iv after 336 hrs by autoradioluminography; assay type: ADME, organism-based, Oryctolagus cuniculus; design: dose 20 mg/kg, route intravenous; conditions: in vivo
[37] = Drug level in New Zealand white rabbit periostium assessed as [14C]dalbavancin level per gram of tissue at 20 mg/kg, iv after 12 hrs by autoradioluminography; assay type: ADME, organism-based, Oryctolagus cuniculus, Periosteum; design: dose 20 mg/kg, route intravenous; conditions: in vivo
[38] = Drug level in New Zealand white rabbit epiphyseal plate assessed as [14C]dalbavancin level per gram of tissue at 20 mg/kg, iv after 120 hrs by autoradioluminography; assay type: ADME, organism-based, Oryctolagus cuniculus; design: dose 20 mg/kg, route intravenous; conditions: in vivo

## CN[C@H]1C(=O)N[C@@H]2Cc3ccc(cc3)Oc3cc4cc(c3O[C@@H]3O[C@H](C(=O)O)[C@@H](O)[C@H](O)[C@H]3NC(=O)CCCCCCCCC(C)C)Oc3ccc(cc3Cl)[C@@H](O)[C@@H]3NC(=O)[C@H](NC(=O)[C@@H]4NC(=O)[C@@H](NC2=O)c2cc(cc(O)c2Cl)Oc2cc1ccc2O)c1ccc(O)c(c1)-c1c(O[C@H]2O[C@H](CO)[C@@H](O)[C@H](O)[C@@H]2O)cc(O)cc1[C@@H](C(=O)NCCCN(C)C)NC3=O [DALBAVANCIN]
[1]
  Drug uptake: 12.2 µg/g
[2]
  Drug uptake: 32.1 µg/g
Blood [3]
  Drug uptake: 30.6 µg/g
[4]
  Drug uptake: 2.67 µg
Oryctolagus cuniculus [5]
  Cp: 2.01 µg
[6]
  Drug uptake: 3.26 µg
[7]
  Drug uptake: 0.05 µg/g
[8]
  Drug uptake: 13.1 µg/g
[9]
  Drug uptake: 4.84 µg
[10]
  Drug uptake: 3.68 µg/g
[11]
  Drug uptake: 37.79 µg
[12]
  Drug uptake: 4.39 µg/g
[13]
  Drug uptake: 5.18 µg
[14]
  Drug uptake: 1.92 µg
[15]
  Drug uptake: 21.4 µg/g
Staphylococcus
  MIC90: ≤ 0.06 mg/L
[16]
  Drug uptake: 7.04 µg
[17]
  Drug uptake: 11.35 µg
[18]
  Drug uptake: 0.67 µg
Blood [19]
  Drug uptake: 5.33 µg/g
[20]
  Drug uptake: 15.1 µg/g
[21]
  Drug uptake: 0.99 µg/g
[22]
  Drug uptake: 8.78 µg/g
Oryctolagus cuniculus [23]
  Cp: 46.88 µg
Blood [24]
  Drug uptake: 3.08 µg/g
[25]
  Drug uptake: 6.56 µg/g
[26]
  Drug uptake: 8.42 µg/g
[27]
  Drug uptake: 14.8 µg/g
[28]
  Drug uptake: 0.24 µg/g
[29]
  Drug uptake: 11.7 µg/g
[30]
  Drug uptake: 8 %ID
[31]
  Drug uptake: 0.94 µg/g
[32]
  Drug uptake: 0.64 µg/g
[33]
  Drug uptake: 8.04 µg/g
[34]
  Drug uptake: 1.25 µg
[35]
  Drug uptake: 2.66 µg/g
[36]
  Drug uptake: 1.16 µg/g
[37]
  Drug uptake: 20.9 µg/g
[38]
  Drug uptake: 10.3 µg/g
